Numbered stars: 1 amine (or outer) side, 2 acyl side, 3 side chain; on linkers, the order of the positions; unused ones are H or OH. Bridge positions count the residues as written; N and C are the ends. Square brackets hold non-standard residues; d marks the D form. Peptide text beside a SMILES is read from it. I, II: the chains in the order shown. 2Nal = N[C@@H](Cc1ccc2ccccc2c1)C(=O)O; Diglycolyl = O=C(COCC(=O)[*:2])[*:1]; NMeR = CN[C@@H](CCCNC(=N)N)C(=O)O; β3hE = N[C@@H](CCC(=O)O)CC(=O)O; NMeK = CN[C@@H](CCCCN)C(=O)O; Pen = CC(C)(S)[C@H](N)C(=O)O
Experiments:
[1] = Simulated Gastric Fluid (SGF) Assay; format: in vitro ADME; details: pig, simulated gastric fluid (SGF) with porcine pepsin, pH 2; Table 4-C, t1/2
Procedure: SGF was prepared by adding 20 mg NaCl, 32 mg porcine pepsin (MP Biochemicals, catalog 02102599), and 70 μl HCl to 10 ml water (final pH=2). Aliquots of SGF (0.5 ml each) were pre-warmed at 37° C. For each peptide tested, to start the reaction, 1 μl of peptide stock solution (10 mM in DMSO) was added to 0.5 ml SGF and thoroughly mixed such that the final peptide concentration was 20 μM. The reactions were incubated at 37° C. with gentle shaking. At each time point (0, 15, 30, 60 min), 50 μl aliquots were removed and added to 200 ul acetonitrile containing 0.1% formic acid to quench the reaction. Samples were stored at 4° C. until the end of the experiment and centrifuged at 10,000 rpm for 5 minutes. Aliquots of the supernatant were removed, diluted 1:1 into distilled water containing internal standard, and analyzed by LCMS/MS. Percent remaining at each timepoint was calculated based on the peak area response ratio of test compound to internal standard. Time 0 was set to 100%, and all later timepoints were calculated relative to time 0. Half-lives were calculated by fitting to a first-order exponential decay equation using GraphPad.

α4β1 = α4β1 (Homo sapiens, UniProt P05556+P13612); test: α4β1-VCAM Cell Adhesion Assay (Jurkat E6.1 human cells); format: cell-based; set-up: host or cells: Jurkat E6.1 human T cells; details: Table 4-B; read-out: Cell Adhesion α4β1 IC50
Chain of α4β1 (P13612 34-1032): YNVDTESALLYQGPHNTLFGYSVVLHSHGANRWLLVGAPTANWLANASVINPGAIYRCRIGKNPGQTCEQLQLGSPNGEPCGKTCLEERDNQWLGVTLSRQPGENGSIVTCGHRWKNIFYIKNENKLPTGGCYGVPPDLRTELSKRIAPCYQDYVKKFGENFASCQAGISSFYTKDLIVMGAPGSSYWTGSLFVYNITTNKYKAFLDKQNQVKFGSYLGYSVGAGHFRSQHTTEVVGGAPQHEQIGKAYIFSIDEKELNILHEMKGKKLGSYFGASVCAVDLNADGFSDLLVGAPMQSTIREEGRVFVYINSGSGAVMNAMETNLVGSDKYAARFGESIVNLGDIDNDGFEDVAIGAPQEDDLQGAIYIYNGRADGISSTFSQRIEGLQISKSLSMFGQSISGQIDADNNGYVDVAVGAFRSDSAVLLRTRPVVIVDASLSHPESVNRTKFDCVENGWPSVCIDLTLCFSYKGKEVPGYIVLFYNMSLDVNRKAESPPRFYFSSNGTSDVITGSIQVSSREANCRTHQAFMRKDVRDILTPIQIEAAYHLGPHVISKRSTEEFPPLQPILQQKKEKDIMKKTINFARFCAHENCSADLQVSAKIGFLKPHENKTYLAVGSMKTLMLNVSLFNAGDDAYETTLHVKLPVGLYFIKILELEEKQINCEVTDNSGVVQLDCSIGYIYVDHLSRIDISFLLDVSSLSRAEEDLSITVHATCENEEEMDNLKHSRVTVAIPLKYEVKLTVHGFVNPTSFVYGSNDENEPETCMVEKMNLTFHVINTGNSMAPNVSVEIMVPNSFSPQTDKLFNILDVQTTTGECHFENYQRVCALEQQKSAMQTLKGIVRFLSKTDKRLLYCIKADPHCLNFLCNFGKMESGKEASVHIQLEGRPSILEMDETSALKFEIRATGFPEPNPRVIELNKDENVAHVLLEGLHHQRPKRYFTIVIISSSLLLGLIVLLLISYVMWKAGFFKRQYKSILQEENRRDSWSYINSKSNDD
Chain of α4β1 (P05556 21-798): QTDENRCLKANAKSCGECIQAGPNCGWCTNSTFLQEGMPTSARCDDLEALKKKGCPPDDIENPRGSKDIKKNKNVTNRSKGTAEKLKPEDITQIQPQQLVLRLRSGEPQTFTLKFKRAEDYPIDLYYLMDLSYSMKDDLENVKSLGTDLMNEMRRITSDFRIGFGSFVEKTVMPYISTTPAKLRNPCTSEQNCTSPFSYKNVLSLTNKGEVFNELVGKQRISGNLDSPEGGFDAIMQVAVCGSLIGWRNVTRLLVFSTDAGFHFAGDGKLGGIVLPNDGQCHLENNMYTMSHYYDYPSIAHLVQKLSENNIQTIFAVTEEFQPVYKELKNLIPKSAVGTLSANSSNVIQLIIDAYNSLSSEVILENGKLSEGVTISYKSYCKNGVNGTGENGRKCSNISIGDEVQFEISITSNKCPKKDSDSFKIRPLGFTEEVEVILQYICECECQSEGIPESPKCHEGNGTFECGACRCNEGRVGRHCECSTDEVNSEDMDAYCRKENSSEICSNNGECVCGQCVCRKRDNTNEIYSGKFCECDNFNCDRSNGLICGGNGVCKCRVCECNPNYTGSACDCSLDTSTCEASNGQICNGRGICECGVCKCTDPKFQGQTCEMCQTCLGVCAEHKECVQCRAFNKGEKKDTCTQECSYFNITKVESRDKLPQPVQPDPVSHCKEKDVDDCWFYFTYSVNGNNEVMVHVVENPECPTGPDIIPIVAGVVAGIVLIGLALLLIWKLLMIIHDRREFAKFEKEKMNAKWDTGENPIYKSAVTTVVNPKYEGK
Procedure: Jurkat E6.1 human cells (Sigma #88042803) were cultured in RPMI 1640 HEPES medium (Invitrogen #22400-089) supplemented with 10% serum (Fetal Bovine Serum, Invitrogen #16140-071), 1 mM sodium pyruvate (Invitrogen #11360-070), 2 mM L-glutamine (Invitrogen #25030-081) and Penicillin-Streptomycin (Invitrogen #15140-122) at 100 units of penicillin and 100 μg of streptomycin per ml. The cells were washed two times in DMEM medium (ATCC #30-2002) supplemented with 0.1% BSA, 10 mM HEPES pH 7 and 1 mM MnCl2. The cells were re-suspended in supplemented DMEM medium at a density of 4×10^6 cells/ml.
A Nunc MaxiSorp plate was coated with rh VCAM-1/CD106 Fc chimera (R&D #862-VC) at 400 ng per well in 50 ul per well in 1×PBS and incubated at 4° C. overnight. The solution was then removed by shaking, blocked with 250 ul per well PBS containing 1% BSA, and incubated at 37° C. for 1 hr. The solution was removed by shaking. Peptides were diluted by serial dilution in a final volume of 50 ul per well (2× concentration). To each well, 50 ul of cells (200,000 cells) were added and the plate was incubated at 37° C., 5% CO2 for 30-45 min to allow cell adhesion. The wells were washed manually three times (100 ul per wash) with supplemented DMEM. After the final wash, 100 ul/well of supplemented DMEM and 10 ul/well of MTT reagent (ATTC cat#30-1010K) were added. The plate was incubated at 37° C., 5% CO2 for 2-3 hrs until a purple precipitate was visible. 100 ul of Detergent Reagent (ATTC cat#30-1010K) was added to each well. The plate was covered from the light, wrapped in Parafilm to prevent evaporation, and left overnight at room temperature in the dark. The plate was shaken for 5 min and the absorbance at 570 nm was measured. To calculate the dose response, the absorbance value of control wells not containing cells was subtracted from each test well.

[2] = Simulated Intestinal Fluid (SIF) Stability Assay; format: in vitro ADME, porcine; details: pig, simulated intestinal fluid (SIF) with 1% porcine pancreatin, pH 6.5, Table 4-C, t1/2; > means assay stopped at that time; read-out: SIF (porcine) Min
Outline: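 Intestinal stability: percent peptide remaining over time, by LC-MS/MS peak-area ratio to internal standard, fitted to first-order decay for half-life. Conditions: 22 μM peptide, 1% pancreatin in pH 6.5 blank FASSIF, 37 °C.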

[3] = Dithiothreitol (DTT) Redox Stability Assay; format: physicochemical; details: Table 4-C, t1/2, 0.5 mM DTT
Procedure: For each peptide tested, the DTT stability assay was conducted by adding 5 μl of a 10 mM peptide stock solution in DMSO to 1 ml of 100 mM Tris-Cl, pH 7.5 (final peptide concentration is 50 μM). At time 0 min, 5 ul of a freshly thawed 100 mM DTT solution was added to the incubation tube containing the peptide, such that the final DTT concentration was 0.5 mM. The reactions were incubated at room temperature. At different time points up to 120 minutes (20 min, 40 min, 80 min, 120 min), 50 ul aliquots were removed, and the reaction was quenched by adding 10 μl of 5M acetic acid. To measure disappearance of the parent peptide, the quenched samples (30 μl) were analyzed by reverse phase HPLC and UV absorbance at 220 nm. The fraction oxidized remaining was graphed versus time, and half-lives were calculated by fitting to a first-order exponential decay equation using Excel.

Row | SMILES | half-life at 20 μM [1] | IC50 (α4β1) | half-life at 22 μM [2] | DTT Min [3]
1 | CC(=O)N[C@@H]1C(=O)N(C)[C@@H](CCCNC(=N)N)C(=O)N[C@@H](CO)C(=O)N[C@@H](CC(=O)O)C(=O)N[C@@H]([C@@H](C)O)C(=O)N[C@@H](CC(C)C)C(=O)N[C@H](C(=O)N[C@@H](Cc2c[nH]c3ccccc23)C(=O)N[C@@H](CCC(=O)O)CC(=O)N[C@H](CCCCNC(=O)COCC(=O)NCCCC[C@@H](NC(=O)C[C@H](CCC(=O)O)NC(=O)[C@H](Cc2c[nH]c3ccccc23)NC(=O)[C@H]2NC(=O)[C@H](CC(C)C)NC(=O)[C@H]([C@@H](C)O)NC(=O)[C@H](CC(=O)O)NC(=O)[C@H](CO)NC(=O)[C@H](CCCNC(=N)N)N(C)C(=O)[C@@H](NC(C)=O)C(C)(C)SSC2(C)C)C(N)=O)C(N)=O)C(C)(C)SSC1(C)C [compound 213, [Ac-Pen-(N-Me-Arg)-Ser-Asp-Thr-Leu-Pen-Trp-(β-homoGlu)-(D-Lys)-NH2]2-DIG] (I: Ac-[Pen][NMeR]SDTL[Pen]W[β3hE][dK]-NH2 / II: Ac-[Pen][NMeR]SDTL[Pen]W[β3hE][dK]-NH2; disulfide I:1-I:7, II:1-II:7; linker I:10-II:10 via Diglycolyl) | > 3 h | > 100 µM | > 3 h | –
2 | CC(=O)N[C@@H]1C(=O)N(C)[C@@H](CCCNC(=N)N)C(=O)N[C@@H](CO)C(=O)N[C@@H](CC(=O)O)C(=O)N[C@@H]([C@@H](C)O)C(=O)N[C@@H](CC(C)C)C(=O)N[C@H](C(=O)N[C@@H](Cc2c[nH]c3ccccc23)C(=O)N[C@@H](CCC(=O)O)C(=O)N(C)[C@@H](CCCCNC(=O)COCC(=O)NCCCC[C@@H](C(N)=O)N(C)C(=O)[C@H](CCC(=O)O)NC(=O)[C@H](Cc2c[nH]c3ccccc23)NC(=O)[C@H]2NC(=O)[C@H](CC(C)C)NC(=O)[C@H]([C@@H](C)O)NC(=O)[C@H](CC(=O)O)NC(=O)[C@H](CO)NC(=O)[C@H](CCCNC(=N)N)N(C)C(=O)[C@@H](NC(C)=O)C(C)(C)SSC2(C)C)C(N)=O)C(C)(C)SSC1(C)C [compound 215, [Ac-Pen-(N-Me-Arg)-Ser-Asp-Thr-Leu-Pen-Trp-Glu-(N-Me-Lys)-NH2]2-DIG] (I: Ac-[Pen][NMeR]SDTL[Pen]WE[NMeK]-NH2 / II: Ac-[Pen][NMeR]SDTL[Pen]WE[NMeK]-NH2; disulfide I:1-I:7, II:1-II:7 (inferred); linker I:10-II:10 via Diglycolyl (inferred)) | > 6 h | – | > 6 h | >120 min
3 | CC(=O)N[C@H]1CSSC[C@@H](C(=O)NCC(=O)N[C@@H](CCC(=O)O)C(=O)N[C@@H](CCCCN)C(=O)O)NC(=O)[C@H](CC(C)C)NC(=O)[C@H]([C@@H](C)O)NC(=O)[C@H](CC(=O)O)NC(=O)[C@H](CO)NC(=O)[C@H](CCCNC(=N)N)N(C)C1=O [compound 199, Ac-C-N-Me-R-S-D-T-L-C-G-E-K-OH] (Ac-C[NMeR]SDTLCGEK-OH; disulfide 1-7) | > 6 h | – | 0.45 h | –
4 | CC(=O)N[C@@H]1C(=O)N(C)[C@@H](CCCNC(=N)N)C(=O)N[C@@H](CO)C(=O)N[C@@H](CC(=O)O)C(=O)N[C@@H]([C@@H](C)O)C(=O)N[C@@H](CC(C)C)C(=O)N[C@H](C(=O)N[C@@H](Cc2c[nH]c3ccccc23)C(=O)N[C@H](CCC(=O)O)C(=O)N[C@H](CCCCNC(=O)COCC(=O)NCCCC[C@@H](NC(=O)[C@@H](CCC(=O)O)NC(=O)[C@H](Cc2c[nH]c3ccccc23)NC(=O)[C@H]2NC(=O)[C@H](CC(C)C)NC(=O)[C@H]([C@@H](C)O)NC(=O)[C@H](CC(=O)O)NC(=O)[C@H](CO)NC(=O)[C@H](CCCNC(=N)N)N(C)C(=O)[C@@H](NC(C)=O)C(C)(C)SSC2(C)C)C(=O)O)C(=O)O)C(C)(C)SSC1(C)C [compound 216, (Ac-Pen-N-Me-R-S-D-T-L-Pen-W-e-k-OH)2-DIG] (I: Ac-[Pen][NMeR]SDTL[Pen]W[dE][dK]-OH / II: Ac-[Pen][NMeR]SDTL[Pen]W[dE][dK]-OH; disulfide I:1-I:7, II:1-II:7 (inferred); linker I:10-II:10 via Diglycolyl (inferred)) | > 6 h | > 100 µM | > 3 h | –
5 | CC(=O)N[C@H]1CSSC[C@@H](C(=O)NCC(=O)N[C@@H](CCC(=O)O)C(=O)N[C@@H](CCCCNC(=O)COCC(=O)NCCCC[C@H](NC(=O)[C@H](CCC(=O)O)NC(=O)CNC(=O)[C@@H]2CSSC[C@H](NC(C)=O)C(=O)N(C)[C@@H](CCCNC(=N)N)C(=O)N[C@@H](CO)C(=O)N[C@@H](CC(=O)O)C(=O)N[C@@H]([C@@H](C)O)C(=O)N[C@@H](CC(C)C)C(=O)N2)C(=O)O)C(=O)O)NC(=O)[C@H](CC(C)C)NC(=O)[C@H]([C@@H](C)O)NC(=O)[C@H](CC(=O)O)NC(=O)[C@H](CO)NC(=O)[C@H](CCCNC(=N)N)N(C)C1=O [compound 201, (Ac-C-N-Me-R-S-D-T-L-C-G-E-K-OH)2-DIG] (I: Ac-C[NMeR]SDTLCGEK-OH / II: Ac-C[NMeR]SDTLCGEK-OH; disulfide I:1-I:7, II:1-II:7 (inferred); linker I:10-II:10 via Diglycolyl (inferred)) | > 6 h | – | 0.3 h | –
6 | CC(=O)N[C@@H]1C(=O)N(C)[C@@H](CCCNC(=N)N)C(=O)N[C@@H](CO)C(=O)N[C@@H](CC(=O)O)C(=O)N[C@@H]([C@@H](C)O)C(=O)N[C@@H](CC(C)C)C(=O)N[C@H](C(=O)N[C@@H](Cc2ccc3ccccc3c2)C(=O)N[C@@H](CCC(=O)O)C(=O)N[C@H](CCCCN)C(N)=O)C(C)(C)SSC1(C)C [compound 210, Ac-Pen-N-Me-R-S-D-T-L-Pen-2-Nal-E-k-NH2] (Ac-[Pen][NMeR]SDTL[Pen][2Nal]E[dK]-NH2; disulfide 1-7) | – | > 100 µM | > 5 h | >120 min
7 | CC(=O)N[C@H]1CSSC[C@@H](C(=O)NCC(=O)N[C@@H](CCC(=O)O)C(N)=O)NC(=O)[C@H](CC(C)C)NC(=O)[C@H]([C@@H](C)O)NC(=O)[C@H](CC(=O)O)NC(=O)[C@H](CO)NC(=O)[C@H](CCCNC(=N)N)N(C)C1=O [compound 198, Ac-C-N-Me-R-S-D-T-L-C-G-E-NH2] (Ac-C[NMeR]SDTLCGE-NH2; disulfide 1-7) | – | > 100 µM | – | 4.5 min
8 | CC(=O)N[C@H]1CSSC(C)(C)[C@@H](C(=O)N[C@H](CCCCN)C(N)=O)NC(=O)[C@H](CC(C)C)NC(=O)[C@H]([C@@H](C)O)NC(=O)[C@H](CC(=O)O)NC(=O)[C@H](CO)NC(=O)[C@H](CCCNC(=N)N)N(C)C1=O [compound 202, Ac-C-N-Me-R-S-D-T-L-Pen-k-NH2] (Ac-C[NMeR]SDTL[Pen][dK]-NH2; disulfide 1-7) | – | > 100 µM | > 6 h | 42 min

From patent publication US9809623B2, “α4β7 peptide monomer and dimer antagonists” (Protagonist Therapeutics, Inc., priority 2014, dated 2017)
